# Measured values taken from US11945822B2, “Pyrazolo-triazine and/or pyrazolo-pxrimidine derivatives as selective inhibitor of cyclin dependent kinase” (QURIENT CO., LTD., priority 2018, dated 2024).
# Target: T1, CDK5/p25 (Homo sapiens, UniProt Q00535)
# T1 construct: purchased Invitrogen PR8543B
# Assay: Enzymatic assay for CDK5 (FRET based LANCE Ultra kinase assay)
# Format: biochemical
# Settings: read-out: CDK5 enzymatic activity (IC50 range)
# In short: (§1)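 LANCE Ultra TR-FRET: ULight-MBP peptide (68 nM) with ATP at Km, […], 60 min at 23° C. EDTA plus Eu-anti-phospho-MBP added, another 60 min, then 665/615 nm emission read. Compounds tested as 8-dose 4-fold DMSO dilutions.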
# T1 sequence (Q00535 whole entry): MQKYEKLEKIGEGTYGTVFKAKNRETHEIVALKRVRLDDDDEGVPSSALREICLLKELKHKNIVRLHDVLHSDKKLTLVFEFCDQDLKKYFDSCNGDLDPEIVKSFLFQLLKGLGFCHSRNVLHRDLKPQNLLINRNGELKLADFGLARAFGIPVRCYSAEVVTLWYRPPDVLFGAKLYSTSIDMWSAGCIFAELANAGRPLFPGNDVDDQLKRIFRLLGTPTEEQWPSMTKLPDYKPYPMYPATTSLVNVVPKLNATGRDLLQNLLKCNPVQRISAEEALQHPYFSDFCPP
# T1 sequence (Q15078 99-307 partner limits assumed): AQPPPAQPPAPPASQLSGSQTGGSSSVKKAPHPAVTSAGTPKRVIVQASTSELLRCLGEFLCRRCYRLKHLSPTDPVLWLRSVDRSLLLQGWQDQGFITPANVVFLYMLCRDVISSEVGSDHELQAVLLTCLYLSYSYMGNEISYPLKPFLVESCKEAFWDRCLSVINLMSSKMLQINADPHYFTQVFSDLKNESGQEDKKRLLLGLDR
row,IC50,SMILES
1,100 to 1000 nM,CC(C)c1cnn2c(NCc3ccccc3-c3cc4cc([N+](=O)[O-])ccc4[nH]3)nc(N3CCC(N)CC3)nc12 [Compound 121]
2,> 1000 nM,CC(C)c1cnn2c(NCc3ccccc3N3CC4CCCCC4C3)nc(N3CCC(N)CC3)nc12 (stereo not shown) [Compound 135]
3,> 1000 nM,CC(C)c1cnn2c(NCc3ccccc3-c3cc4ccccc4[nH]3)nc(N3CCC[C@@H](N)C3)nc12 [Compound 131]
4,100 to 1000 nM,CNC(=O)c1ccccc1CNc1nc(N2CCC(N)CC2)nc2c(C(C)C)cnn12 [Compound 19]

# System: H460
# Assay: Cellular H460 viability assay (CellTiter-Glo, 72 hours)
# Format: cell-based
# Settings: Homo sapiens, NCI-H460
# In short: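 Luminescent ATP read-out (CellTiter-Glo) after 72 h compound exposure at 37 °C/5% CO2; duplicate wells; vehicle control DMSO <0.1% final; seeding density set per cell line.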
row,IC50,SMILES
1,< 1000 nM,CC(C)c1cnn2c(NCc3ccccc3-c3cc4cc([N+](=O)[O-])ccc4[nH]3)nc(N3CCC(N)CC3)nc12 [Compound 121]
2,1000 to 10000 nM,CC(C)c1cnn2c(NCc3ccccc3N3CC4CCCCC4C3)nc(N3CCC(N)CC3)nc12 (stereo not shown) [Compound 135]

# Target: T2, CDK1/Cyclin B (Homo sapiens, UniProt P06493)
# T2 construct: purchased Invitrogen PR4768C
# Assay: Enzymatic assay for CDK1 (FRET based LANCE Ultra kinase assay)
# Format: biochemical
# Settings: read-out: CDK1 enzymatic activity (IC50 range)
# In short: as §1
# T2 sequence (P06493 whole entry): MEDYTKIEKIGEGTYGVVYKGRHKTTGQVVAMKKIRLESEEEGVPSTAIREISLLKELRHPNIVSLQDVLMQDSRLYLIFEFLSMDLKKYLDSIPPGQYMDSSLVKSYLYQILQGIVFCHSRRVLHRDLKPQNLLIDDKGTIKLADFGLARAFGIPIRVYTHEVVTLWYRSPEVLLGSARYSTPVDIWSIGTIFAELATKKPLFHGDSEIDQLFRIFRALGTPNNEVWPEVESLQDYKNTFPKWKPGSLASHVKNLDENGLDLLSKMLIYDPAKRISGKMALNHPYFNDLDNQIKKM
# T2 sequence (P14635 whole entry partner): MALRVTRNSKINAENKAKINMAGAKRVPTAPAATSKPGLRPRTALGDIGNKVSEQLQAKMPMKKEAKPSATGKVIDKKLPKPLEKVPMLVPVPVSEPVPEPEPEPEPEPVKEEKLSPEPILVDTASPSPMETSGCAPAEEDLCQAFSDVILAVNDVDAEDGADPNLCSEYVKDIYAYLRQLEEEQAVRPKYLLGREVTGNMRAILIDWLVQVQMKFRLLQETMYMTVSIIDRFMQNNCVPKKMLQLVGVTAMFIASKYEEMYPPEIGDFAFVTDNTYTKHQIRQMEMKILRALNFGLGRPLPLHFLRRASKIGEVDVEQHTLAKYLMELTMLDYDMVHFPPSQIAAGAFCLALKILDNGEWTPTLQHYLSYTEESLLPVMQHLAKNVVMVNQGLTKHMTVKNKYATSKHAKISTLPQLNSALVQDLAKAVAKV
row,IC50,SMILES
1,> 1000 nM,CC(C)c1cnn2c(NCc3ccccc3-c3cc4cc([N+](=O)[O-])ccc4[nH]3)nc(N3CCC(N)CC3)nc12 [Compound 121]
2,> 1000 nM,CC(C)c1cnn2c(NCc3ccccc3N3CC4CCCCC4C3)nc(N3CCC(N)CC3)nc12 (stereo not shown) [Compound 135]
3,> 1000 nM,CC(C)c1cnn2c(NCc3ccccc3-c3cc4ccccc4[nH]3)nc(N3CCC[C@@H](N)C3)nc12 [Compound 131]
4,> 1000 nM,CNC(=O)c1ccccc1CNc1nc(N2CCC(N)CC2)nc2c(C(C)C)cnn12 [Compound 19]

# Target: T3, CDK7/Cyclin H/MNAT1 (Homo sapiens, UniProt P50613)
# T3 construct: purchased Invitrogen PR6749B
# Assay: Enzymatic assay for CDK7 (FRET based LANCE Ultra kinase assay)
# Format: biochemical
# Settings: CDK7 over CDK1
# In short: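 Inhibition was measured at Km ATP by time-resolved FRET between a Eu anti-phospho antibody and a phosphorylated ULight peptide. The enzyme was the purified CDK7/cyclin complex, and data were curve-fitted.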
# T3 sequence (P50613 whole entry): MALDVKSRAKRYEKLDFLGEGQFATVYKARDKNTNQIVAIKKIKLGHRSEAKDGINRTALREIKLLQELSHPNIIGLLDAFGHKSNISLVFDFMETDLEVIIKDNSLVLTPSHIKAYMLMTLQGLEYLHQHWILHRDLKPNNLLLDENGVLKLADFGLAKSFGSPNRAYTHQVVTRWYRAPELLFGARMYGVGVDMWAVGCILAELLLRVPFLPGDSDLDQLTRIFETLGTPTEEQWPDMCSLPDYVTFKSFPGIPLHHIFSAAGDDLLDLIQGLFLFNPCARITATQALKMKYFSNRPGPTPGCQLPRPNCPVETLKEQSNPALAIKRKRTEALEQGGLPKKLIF
# T3 sequence (P51946 whole entry partner): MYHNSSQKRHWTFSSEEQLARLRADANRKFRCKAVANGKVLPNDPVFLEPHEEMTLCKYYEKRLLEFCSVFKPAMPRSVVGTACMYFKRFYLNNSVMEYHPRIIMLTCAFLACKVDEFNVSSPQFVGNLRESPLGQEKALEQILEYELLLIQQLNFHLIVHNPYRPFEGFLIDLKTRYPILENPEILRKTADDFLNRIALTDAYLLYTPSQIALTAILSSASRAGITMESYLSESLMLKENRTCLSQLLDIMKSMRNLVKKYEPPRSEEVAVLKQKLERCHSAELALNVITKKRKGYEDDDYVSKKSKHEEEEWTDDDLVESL
# T3 sequence (P51948 whole entry partner): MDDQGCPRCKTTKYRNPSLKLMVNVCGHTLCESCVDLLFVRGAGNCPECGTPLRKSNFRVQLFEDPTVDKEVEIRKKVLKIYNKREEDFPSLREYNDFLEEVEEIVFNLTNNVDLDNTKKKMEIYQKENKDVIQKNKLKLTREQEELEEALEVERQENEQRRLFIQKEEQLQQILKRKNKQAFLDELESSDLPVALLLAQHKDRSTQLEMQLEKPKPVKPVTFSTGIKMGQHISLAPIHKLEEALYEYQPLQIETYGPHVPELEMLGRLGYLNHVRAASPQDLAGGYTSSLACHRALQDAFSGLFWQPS
row,CDK1/CDK7: Selectivity of CDK7 inhibition over CDK1 inhibition,SMILES
1,A (A=greater than 200 fold),CC(C)c1cnn2c(NCc3ccccc3-c3cc4cc([N+](=O)[O-])ccc4[nH]3)nc(N3CCC(N)CC3)nc12 [Compound 121]
2,A (A=greater than 200 fold),CC(C)c1cnn2c(NCc3ccccc3N3CC4CCCCC4C3)nc(N3CCC(N)CC3)nc12 (stereo not shown) [Compound 135]
3,A (A=greater than 200 fold),CNC(=O)c1ccccc1CNc1nc(N2CCC(N)CC2)nc2c(C(C)C)cnn12 [Compound 19]

row,SMILES,CDK1/CDK7: Selectivity of CDK7 inhibition over CDK1 inhibition
1,CC(C)c1cnn2c(NCc3ccccc3-c3cc4ccccc4[nH]3)nc(N3CCC[C@@H](N)C3)nc12 [Compound 131],"B (B=less than 200 fold, but greater than 20 fold)"

# Same assay, conditions: CDK7 over CDK2
row,SMILES,CDK2/CDK7: Selectivity of CDK7 inhibition over CDK2 inhibition
1,CC(C)c1cnn2c(NCc3ccccc3-c3cc4cc([N+](=O)[O-])ccc4[nH]3)nc(N3CCC(N)CC3)nc12 [Compound 121],"B (B=less than 200 fold, but greater than 20 fold)"
2,CC(C)c1cnn2c(NCc3ccccc3N3CC4CCCCC4C3)nc(N3CCC(N)CC3)nc12 (stereo not shown) [Compound 135],"B (B=less than 200 fold, but greater than 20 fold)"
3,CC(C)c1cnn2c(NCc3ccccc3-c3cc4ccccc4[nH]3)nc(N3CCC[C@@H](N)C3)nc12 [Compound 131],"B (B=less than 200 fold, but greater than 20 fold)"
4,CNC(=O)c1ccccc1CNc1nc(N2CCC(N)CC2)nc2c(C(C)C)cnn12 [Compound 19],"B (B=less than 200 fold, but greater than 20 fold)"

# Same assay, conditions: CDK7 over CDK5
row,SMILES,CDK5/CDK7: Selectivity of CDK7 inhibition over CDK5 inhibition
1,CC(C)c1cnn2c(NCc3ccccc3-c3cc4cc([N+](=O)[O-])ccc4[nH]3)nc(N3CCC(N)CC3)nc12 [Compound 121],"B (B=less than 200 fold, but greater than 20 fold)"
2,CC(C)c1cnn2c(NCc3ccccc3N3CC4CCCCC4C3)nc(N3CCC(N)CC3)nc12 (stereo not shown) [Compound 135],"B (B=less than 200 fold, but greater than 20 fold)"
3,CC(C)c1cnn2c(NCc3ccccc3-c3cc4ccccc4[nH]3)nc(N3CCC[C@@H](N)C3)nc12 [Compound 131],"B (B=less than 200 fold, but greater than 20 fold)"
4,CNC(=O)c1ccccc1CNc1nc(N2CCC(N)CC2)nc2c(C(C)C)cnn12 [Compound 19],"B (B=less than 200 fold, but greater than 20 fold)"

# Same assay, conditions: read-out: CDK7 enzymatic activity (IC50 range)
row,IC50,SMILES
1,< 100 nM,CC(C)c1cnn2c(NCc3ccccc3-c3cc4cc([N+](=O)[O-])ccc4[nH]3)nc(N3CCC(N)CC3)nc12 [Compound 121]
2,< 100 nM,CC(C)c1cnn2c(NCc3ccccc3N3CC4CCCCC4C3)nc(N3CCC(N)CC3)nc12 (stereo not shown) [Compound 135]
3,< 100 nM,CC(C)c1cnn2c(NCc3ccccc3-c3cc4ccccc4[nH]3)nc(N3CCC[C@@H](N)C3)nc12 [Compound 131]
4,< 100 nM,CNC(=O)c1ccccc1CNc1nc(N2CCC(N)CC2)nc2c(C(C)C)cnn12 [Compound 19]

# System: RPMI-8226
# Assay: Cellular RPMI-8226 viability assay (CellTiter-Glo, 72 hours)
# Format: cell-based
# Settings: Homo sapiens
# Experimental: All cell lines were routinely tested for mycoplasma.
# The effect of the CDK7 inhibitor to inhibit the growth of target cancer cells was evaluated through the 72 hours time period of viability assay. Briefly, the candidate cell line ware plated in 96 well plate at the following density of cells respectively. […] DMSO solvent without compound served as a control and final DMSO concentration less than 0.1%. After 72 hours of incubation at 37° C., 5% CO2 incubator, cells were analyzed for the viability using the CellTiter-Glo Luminescent Cell Viability Assay (Promega, Cat #G7570). All viability assays were performed in duplicate and Luminescence was read using an Envision (Perkin Elmer, USA). Data was analyzed using XLfit software.
row,IC50,SMILES
1,< 1000 nM,CC(C)c1cnn2c(NCc3ccccc3-c3cc4cc([N+](=O)[O-])ccc4[nH]3)nc(N3CCC(N)CC3)nc12 [Compound 121]
2,1000 to 10000 nM,CC(C)c1cnn2c(NCc3ccccc3N3CC4CCCCC4C3)nc(N3CCC(N)CC3)nc12 (stereo not shown) [Compound 135]
3,1000 to 10000 nM,CC(C)c1cnn2c(NCc3ccccc3-c3cc4ccccc4[nH]3)nc(N3CCC[C@@H](N)C3)nc12 [Compound 131]
4,< 1000 nM,CNC(=O)c1ccccc1CNc1nc(N2CCC(N)CC2)nc2c(C(C)C)cnn12 [Compound 19]

# Target: T4, CDK2/Cyclin A (Homo sapiens, UniProt P24941)
# T4 construct: purchased Invitrogen PV6290
# Assay: Enzymatic assay for CDK2 (FRET based LANCE Ultra kinase assay)
# Format: biochemical
# Settings: read-out: CDK2 enzymatic activity (IC50 range)
# In short: as §1
row,IC50,SMILES
1,100 to 1000 nM,CC(C)c1cnn2c(NCc3ccccc3-c3cc4cc([N+](=O)[O-])ccc4[nH]3)nc(N3CCC(N)CC3)nc12 [Compound 121]
2,> 1000 nM,CC(C)c1cnn2c(NCc3ccccc3N3CC4CCCCC4C3)nc(N3CCC(N)CC3)nc12 (stereo not shown) [Compound 135]
3,> 1000 nM,CC(C)c1cnn2c(NCc3ccccc3-c3cc4ccccc4[nH]3)nc(N3CCC[C@@H](N)C3)nc12 [Compound 131]
4,100 to 1000 nM,CNC(=O)c1ccccc1CNc1nc(N2CCC(N)CC2)nc2c(C(C)C)cnn12 [Compound 19]
